Data reported in ChEMBL document CHEMBL4431390, “Dual action Smac mimetics-zinc chelators as pro-apoptotic antitumoral agents” (Bioorg Med Chem Lett, 2016).
Active and inactive are the calls of the source. The calls are words filed in the database; no cut-off is given here.

How the values were obtained:
[1] = biological target: T1, E3 ubiquitin-protein ligase XIAP (Homo sapiens, UniProt P98170); assay: Binding affinity to XIAP BIR3 domain in Smac mimetic-sensitive human MDA-MB-231 cells assessed as increase in cleaved PARP expression at 5 uM after 24 hrs by Western blot analysis; format: cell-based
[2] = biological target: T1, E3 ubiquitin-protein ligase XIAP; assay: Binding affinity to XIAP BIR3 domain in Smac mimetic-sensitive human MDA-MB-231 cells assessed as increase in cellular IAP1 degradation at 5 uM after 24 hrs by Western blot analysis; format: cell-based
[3] = biological target: T1, E3 ubiquitin-protein ligase XIAP; assay: Binding affinity to XIAP BIR3 domain in Smac mimetic-sensitive human MDA-MB-231 cells assessed as increase in cleaved caspase-3 expression at 5 uM after 24 hrs by Western blot analysis; format: cell-based
[4] = biological target: T1, E3 ubiquitin-protein ligase XIAP; assay: Displacement of FITC-Smac from human recombinant His-tagged XIAP BIR3 domain (241 to 356 residues) expressed in Escherichia coli BL21(DE3) cells after 3 hrs by fluorescence polarization assay
[5] = Metal chelating activity assessed as compound-Zn2+ complex formation; format: functional
[6] = Metal chelating activity assessed as compound-Zn2+ complex formation at 50 uM after 15 mins by spectrofluorimetric analysis; format: functional
BT-549 [7] = assay: Cytotoxicity against Smac mimetic-resistant human BT549 cells assessed as growth inhibition after 24 hrs by CellTiter-Glo assay; format: functional, cell-based; details: BT-549, 24 h
BT-549 [8] = assay: Effect on XIAP level in Smac mimetic-resistant human BT549 cells at 5 uM after 24 hrs by Western blot analysis; format: functional, cell-based
MDA-MB-453 [9] = assay: Cytotoxicity against Smac mimetic-resistant human MDA-MB-453 cells assessed as growth inhibition after 24 hrs by CellTiter-Glo assay; format: functional, cell-based; details: MDA-MB-453, 24 h
MDA-MB-231 [10] = assay: Cytotoxicity against Smac mimetic-sensitive human MDA-MB-231 cells assessed as growth inhibition after 24 hrs by CellTiter-Glo assay; format: functional, cell-based; details: MDA-MB-231, 24 h
MDA-MB-453 [11] = assay: Effect on XIAP level in Smac mimetic-resistant human MDA-MB-453 cells at 5 uM after 24 hrs by Western blot analysis; format: functional, cell-based
MDA-MB-231 [12] = assay: Effect on XIAP level in Smac mimetic-sensitive human MDA-MB-231 cells at 5 uM after 24 hrs by Western blot analysis; format: functional, cell-based
[13] = biological target: T1, E3 ubiquitin-protein ligase XIAP; assay: Binding affinity to XIAP BIR3 domain in Smac mimetic-resistant human MDA-MB-453 cells assessed as increase in cellular IAP1 degradation at 5 uM after 24 hrs by Western blot analysis; format: cell-based
[14] = biological target: T1, E3 ubiquitin-protein ligase XIAP; assay: Binding affinity to XIAP BIR3 domain in Smac mimetic-resistant human MDA-MB-453 cells assessed as increase in cleaved caspase-3 expression at 5 uM after 24 hrs by Western blot analysis; format: cell-based
[15] = biological target: T1, E3 ubiquitin-protein ligase XIAP; assay: Binding affinity to XIAP BIR3 domain in Smac mimetic-resistant human MDA-MB-453 cells assessed as increase in cleaved PARP expression at 5 uM after 24 hrs by Western blot analysis; format: cell-based
[16] = biological target: T1, E3 ubiquitin-protein ligase XIAP; assay: Binding affinity to XIAP BIR3 domain in Smac mimetic-resistant human BT549 cells assessed as increase in cellular IAP1 degradation at 5 uM after 24 hrs by Western blot analysis
[17] = biological target: T1, E3 ubiquitin-protein ligase XIAP; assay: Binding affinity to XIAP BIR3 domain in Smac mimetic-resistant human BT549 cells assessed as increase in cleaved caspase-3 expression at 5 uM after 24 hrs by Western blot analysis
[18] = biological target: T1, E3 ubiquitin-protein ligase XIAP; assay: Binding affinity to XIAP BIR3 domain in Smac mimetic-resistant human BT549 cells assessed as increase in cleaved PARP expression at 5 uM after 24 hrs by Western blot analysis

T1 sequence (P98170 whole entry, the tested form may be a part): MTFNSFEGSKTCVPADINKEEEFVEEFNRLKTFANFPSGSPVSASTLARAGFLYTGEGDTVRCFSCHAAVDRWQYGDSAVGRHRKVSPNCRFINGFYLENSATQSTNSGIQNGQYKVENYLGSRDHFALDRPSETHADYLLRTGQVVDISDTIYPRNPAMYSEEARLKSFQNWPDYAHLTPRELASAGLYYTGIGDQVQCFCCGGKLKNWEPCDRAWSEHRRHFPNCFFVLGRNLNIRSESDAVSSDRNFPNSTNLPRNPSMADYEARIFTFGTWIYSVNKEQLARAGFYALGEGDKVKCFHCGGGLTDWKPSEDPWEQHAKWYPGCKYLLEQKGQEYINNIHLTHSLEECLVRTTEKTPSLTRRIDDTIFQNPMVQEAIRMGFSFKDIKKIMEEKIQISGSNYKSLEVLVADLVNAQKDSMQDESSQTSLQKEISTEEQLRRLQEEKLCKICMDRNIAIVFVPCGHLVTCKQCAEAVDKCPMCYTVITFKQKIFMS

Structure (SMILES)	Activity [1]	Activity [2]	Activity [3]	IC50 [4] [µM]	Kd [5] [nM]	Activity [6]	IC50 (BT-549 [7]) [µM]	Activity (BT-549 [8])	IC50 (MDA-MB-453 [9]) [µM]	IC50 (MDA-MB-231 [10]) [µM]	Activity (MDA-MB-453 [11])	Activity (MDA-MB-231 [12])	Activity [13]	Activity [14]	Activity [15]	Activity [16]	Activity [17]	Activity [18]
CC[C@H](NC)C(=O)N[C@@H]1C(=O)N2[C@@H](CC[C@@H]1CNC(=O)c1ccccc1)CC[C@H]2C(=O)N(Cc1ccccn1)Cc1ccccn1	inactive	inactive	inactive	> 10	–	–	–	–	–	–	–	–	–	–	–	–	–	–
CC[C@H](NC)C(=O)N[C@@H]1C(=O)N2[C@@H](CC[C@@H]1CNC(=O)c1ccccc1)CC[C@H]2C(=O)N[C@@H](C(=O)NCCN(Cc1ccccn1)Cc1ccccn1)c1ccccc1	inactive	inactive	inactive	> 10	–	–	–	–	–	–	–	–	–	–	–	–	–	–
c1ccc(CNCc2ccccn2)nc1	–	–	–	–	210	Active	–	–	–	–	–	–	–	–	–	–	–	–
C=CCc1cccc(/C=N/NC(=O)CN2CCN(Cc3ccccc3)CC2)c1O [PAC-1]	inactive	inactive	inactive	> 10	–	–	14.3	inactive	2	4.7	inactive	inactive	–	–	–	–	–	–
C=CCc1cccc(/C=N/NC(=O)[C@@H](NC(=O)[C@@H]2CC[C@@H]3CC[C@H](CCNC(=O)c4ccccc4)[C@H](NC(=O)[C@H](CC)NC)C(=O)N32)c2ccccc2)c1O	Active	Active	Active	1.09	–	–	–	–	–	–	–	–	Active	inactive	inactive	Active	–	–
CC[C@H](NC)C(=O)N[C@@H]1C(=O)N2[C@@H](CC[C@@H]1CNC(=O)c1ccccc1)CC[C@H]2C(=O)N[C@H](C(=O)N(Cc1ccccn1)Cc1ccccn1)c1ccccc1	Active	Active	Active	0.37	–	–	–	–	–	–	–	–	Active	inactive	inactive	–	–	–
c1ccc(CN(CCN(Cc2ccccn2)Cc2ccccn2)Cc2ccccn2)nc1	–	–	–	–	3e-07	–	–	–	–	–	–	–	–	–	–	–	–	–
CC[C@H](NC)C(=O)N[C@@H]1C(=O)N2[C@@H](CC[C@@H]1CNC(=O)c1ccccc1)CC[C@H]2C(=O)NC(c1ccccc1)c1ccccc1	Active	Active	Active	–	–	–	> 25	inactive	> 25	2.3	inactive	inactive	Active	inactive	inactive	Active	Active	Active
CC[C@H](NC)C(=O)N[C@@H]1C(=O)N2[C@@H](CC[C@@H]1CNC(=O)c1ccccc1)CC[C@H]2C(=O)N[C@H](C(=O)NCCN(Cc1ccccn1)Cc1ccccn1)c1ccccc1	Active	Active	Active	0.091	–	–	–	–	–	–	–	–	Active	inactive	inactive	Active	Active	Active
CC[C@H](NC)C(=O)N[C@@H]1C(=O)N2[C@@H](CC[C@@H]1CNC(=O)c1ccccc1)CC[C@H]2C(=O)N[C@@H](C(=O)N(Cc1ccccn1)Cc1ccccn1)c1ccccc1	inactive	inactive	inactive	> 10	–	–	–	–	–	–	–	–	–	–	–	–	–	–
